# Patent US20120071322A1, “Substituted Pyridopyrazines with a Herbicidal Action” (BASF SE, priority 2009, published 2012)
# How the values were obtained:
# [1] = tested on: SETIT; assay: greenhouse experiment, pre-emergence treatment; type: in vivo, Setaria italica; details: pre-emergence method, application rate 3.0 kg/ha, scale from 0 to 100
# Text: The seeds of the test plants were sown separately for each species. For the pre-emergence treatment, the active compounds, which had been suspended or emulsified in water, were applied directly after sowing by means of finely distributing nozzles. The containers were irrigated gently to promote germination and growth and subsequently covered with transparent plastic hoods until the plants had rooted. This cover caused uniform germination of the test plants, unless this has been impaired by the active compounds. Depending on the species, the plants were kept at 10-25° C. or 20-35° C. The test period extended over 2 to 4 weeks. During this time, the plants were tended, and their response to the individual treatments was evaluated. Evaluation was carried out using a scale from 0 to 100. 100 means no emergence of the plants, or complete destruction of at least the aerial moieties, and 0 means no damage, or normal course of growth. A good herbicidal activity is given at values of at least 70 and a very good herbicidal activity is given at values of at least 85. [table]
# [2] = tested on: ABUTH; assay: greenhouse experiment, post-emergence treatment; type: in vivo, Abutilon theophrasti; details: post-emergence method, application rate 3.0 kg/ha, scale from 0 to 100
# Text: (§1) The seeds of the test plants were sown separately for each species. For the post-emergence treatment, the test plants were first grown to a height of 3 to 15 cm, depending on the plant habit, and then treated with the active compounds which had been suspended or emulsified in water. For this purpose, the test plants were either sown directly and grown in the same containers, or they were first grown separately as seedlings and transplanted into the test containers a few days prior to treatment. Depending on the species, the plants were kept at 10-25° C. or 20-35° C. The test period extended over 2 to 4 weeks. During this time, the plants were tended, and their response to the individual treatments was evaluated. Evaluation was carried out using a scale from 0 to 100. 100 means no emergence of the plants, or complete destruction of at least the aerial moieties, and 0 means no damage, or normal course of growth. A good herbicidal activity is given at values of at least 70 and a very good herbicidal activity is given at values of at least 85. [table]
# [3] = tested on: AVEFA; assay: greenhouse experiment, post-emergence treatment; type: in vivo, Avena fatua; details: post-emergence method, application rate 3.0 kg/ha, scale from 0 to 100
# Text: as §1
# [4] = tested on: SETFA; assay: greenhouse experiment, post-emergence treatment; type: in vivo, Setaria faberi; details: post-emergence method, application rate 3.0 kg/ha, scale from 0 to 100
# Text: as §1
smiles,measurement,setting,value
"O=c1oc2nccnc2c(O)c1-c1ccccc1C(F)(F)F [example 1, 8-Hydroxy-7-(2-trifluoromethylphenyl)pyrano[2,3-b]pyrazin-6-one]",herbicidal activity against SETIT,[1],very good herbicidal activity (a very good herbicidal activity is given at values of at least 85)
same,herbicidal activity against ABUTH,[2],good herbicidal activity (A good herbicidal activity is given at values of at least 70)
same,herbicidal activity against AVEFA,[3],good herbicidal activity (A good herbicidal activity is given at values of at least 70)
same,herbicidal activity against SETFA,[4],good herbicidal activity (A good herbicidal activity is given at values of at least 70)
